Experimental data reported in article PMC5291411, “Cytotoxic conjugates of betulinic acid and substituted triazoles prepared by Huisgen Cycloaddition from 30-azidoderivatives” (PLoS ONE, 2017).

Tests used:
CCRF-CEM = experiment: Cytotoxic MTS assay, CCRF-CEM; assay type: cell-based; conditions: Homo sapiens, 72 h, T-lymphoblastic leukemia
Source text: (§1) Cytotoxic activity of all synthesized compounds was investigated in vitro against eight human cancer cell lines and two non-tumor fibroblasts using the standard MTS test (Table 1). The cancer cell lines were derived from T-lymphoblastic leukemia CCRF-CEM, leukemia K562 and their multiresistant counterparts expressing P-glycoprotein, MRP1 and LRP proteins (CEM-DNR, K562-TAX), solid tumors including lung (A549) and colon (HCT116, HCT116p53-/-) carcinomas, osteosarcoma cell line (U2OS), and for comparison, tests were performed on two human non-cancer fibroblast cell lines (BJ, MRC-5).
(§2) Biological assays were performed in concordance with our previous publications [[29], [58]; [60]; [61]]. All cells (if not indicated otherwise) were purchased from the American Tissue Culture Collection (ATCC). The CCRF-CEM line is derived from T lymphoblastic leukemia, evincing high chemosenzitivity, K562 represent cells from an acute myeloid leukemia patient sample with bcr-abl translocation, U2OS line is derived from osteosarcoma, HCT116 is colorectal tumor cell line and its p53 gene knock-down counterpart (HCT116p53-/-, Horizon Discovery Ltd, UK) is a model of human cancers with p53 mutation frequently associated with poor prognosis, A549 line is lung adenocarcinoma. The daunorubicin resistant subline of CCRF-CEM cells (CEM-DNR bulk) and paclitaxel resistant subline K562-TAX were selected in our laboratory by the cultivation of maternal cell lines in increasing concentrations of daunorubicine or paclitaxel, respectively. The CEM-DNR bulk cells overexpress MRP-1 and P-glycoprotein protein, while K562-TAX cells overexpress P-glycoprotein only. Both proteins belong to the family of ABC transporters and are involved in the primary and/or acquired multidrug resistance phenomenon. MRC-5 and BJ cell lines were used as a non-tumor control and represent human fibroblasts. The cells were maintained in nunc/corning 80 cm^2 plastic tissue culture flasks and cultured in cell culture medium according to ATCC or Horizon recommendations (DMEM/RPMI 1640 with 5 g/L glucose, 2 mM glutamine, 100 U/mL penicillin, […] streptomycin, 10% fetal calf serum, and NaHCO3).
(§3) MTS assay was performed at Institute of Molecular and Translational Medicine by robotic platform (HighResBiosolutions). Cell suspensions were prepared and diluted according to the particular cell type and the expected target cell density (25000–35000 cells/mL based on cell growth characteristics). Cells were added by automatic pipetor (30 μL) into 384 well microtiter plates. All tested compounds were dissolved in 100% DMSO and four-fold dilutions of the intended test concentration were added in 0.15 μL aliquots at time zero to the microtiter plate wells by the echoacustic non-contact liquid handler Echo550 (Labcyte). The experiments were performed in technical duplicates and three biological replicates at least. The cells were incubated with the tested compounds for 72 h at 37°C, in a 5% CO2 atmosphere at 100% humidity. At the end of the incubation period, the cells were assayed by using the MTS test. Aliquots (5 μL) of the MTS stock solution were pipetted into each well and incubated for additional 1–4 h. After this incubation period, the optical density (OD) was measured at 490 nm with an Envision reader (Perkin Elmer). Tumor cell survival (TCS) was calculated by using the following equation: TCS = (ODdrug-exposed well/mean ODcontrol wells) × 100%. The IC50 value, the drug concentration that is lethal to 50% of the tumor cells, was calculated from the appropriate dose-response curves in Dotmatics software.

CEM-DNR = experiment: Cytotoxic MTS assay, CEM-DNR; assay type: cell-based; conditions: Homo sapiens, 72 h, daunorubicin resistant subline of CCRF-CEM
Source text: as §1, §2, §3

K562 = experiment: Cytotoxic MTS assay, K562; assay type: cell-based; conditions: Homo sapiens, 72 h, leukemia
Source text: as §1, §2, §3

K562-TAX = experiment: Cytotoxic MTS assay, K562-TAX; assay type: cell-based; conditions: Homo sapiens, 72 h, paclitaxel resistant subline of K562
Source text: as §1, §2, §3

A549 = experiment: Cytotoxic MTS assay, A549; assay type: cell-based; conditions: Homo sapiens, 72 h, lung adenocarcinoma
Source text: as §1, §2, §3

HCT116 = experiment: Cytotoxic MTS assay, HCT116; assay type: cell-based; conditions: Homo sapiens, HCT-116, 72 h, colorectal tumor
Source text: as §1, §2, §3

HCT116p53-/- = experiment: Cytotoxic MTS assay, HCT116p53-/-; assay type: cell-based; conditions: Homo sapiens, 72 h, p53 knock-down colorectal tumor
Source text: as §1, §2, §3

U2OS = experiment: Cytotoxic MTS assay, U2OS; assay type: cell-based; conditions: Homo sapiens, 72 h, osteosarcoma
Source text: as §1, §2, §3

BJ = experiment: Cytotoxic MTS assay, BJ fibroblasts; assay type: cell-based; conditions: Homo sapiens, 72 h, non-tumor fibroblasts
Source text: as §1, §2, §3

MRC-5 = experiment: Cytotoxic MTS assay, MRC-5 fibroblasts; assay type: cell-based; conditions: Homo sapiens, MRC5, 72 h, non-tumor fibroblasts
Source text: as §1, §2, §3

CCRF-CEM cells [1] = experiment: Cell cycle and apoptosis analysis (propidium iodide flow cytometry); assay type: cell-based, human
Method: (§4) Together with the treated cells, control sample containing vehicle was harvested at the same time point after 24 h. After another 24 hours, cells were then washed with cold PBS and fixed in 70% ethanol added dropwise and stored overnight at -20°C. Afterwards, cells were washed in hypotonic citrate buffer, treated with RNAse (50 μg/mL) and stained with propidium iodide. Flow cytometer using a 488 nm single beam laser (Becton Dickinson) was used for measurement. Cell cycle was analyzed in the program ModFitLT (Verity), and apoptosis was measured in logarithmic model expressing percentage of the particles with propidium content lower than cells in G0/G1 phase (<G1) of the cell cycle. Half of the sample was used for pH3^Ser10 antibody (Sigma) labeling and subsequent flow cytometry analysis of mitotic cells.

CCRF-CEM cells [2] = experiment: pH3Ser10 antibody labeling, flow cytometry of mitotic cells; assay type: cell-based, human
Method: as §4

CCRF-CEM cells [3] = experiment: BrDU incorporation analysis (DNA synthesis); assay type: cell-based, human; design: DNA synthesis: unit not given here
Method: as §4
For this analysis, the same procedure of cultivation as previously was used. Before harvesting, 10 μM 5-bromo-2-deoxyuridine (BrDU), was added to the cells for puls-labeling for 30 min. Cells were fixed with ice-cold 70% ethanol and stored overnight. Before the analysis, cellswere washed with PBS, and resuspended in 2 M HCl for 30 min at room temperature to denature their DNA. Following neutralization with 0.1 M Na2B4O7 (Borax), cells were washed with PBS containing 0.5% Tween-20 and 1% BSA. Staining with primary anti-BrDU antibody (Exbio) for 30 min at room temperature in the dark followed. Cells were than washed with PBS and stained with secondary antimouse-FITC antibody (Sigma). Cells were then washed with PBS again and incubated with propidium iodide (0.1 mg/mL) and RNAse A (0.5 mg/mL) for 1 h at room temperature in the dark and afterwards analyzed by flow cytometry using a 488 nm single beam laser (FACSCalibur, Becton Dickinson).

CCRF-CEM cells [4] = experiment: BrU incorporation analysis (RNA synthesis); assay type: cell-based, human; design: RNA synthesis: unit not given here
Method: as §4
Cells were cultured and treated as above. Before harvesting, pulse-labeling with 1 mM 5-bromouridine (BrU) for 30 min followed. The cells were then fixed in 1% buffered paraformaldehyde with 0.05% of NP-40 in room temperature for 15 min, and then stored in 4°C overnight. Before measurement, they werewashed in PBS with 1% glycin, washed in PBS again, and stained by primary anti-BrDU antibody crossreacting to BrU (Exbio) for 30 min at room temperature in the dark. After another washing step in PBS cells were stained by secondary antimouse-FITC antibody (Sigma). Following the staining, cells were washed with PBS and fixed with 1% PBS buffered paraformaldehyde with 0.05% of NP-40 for 1 hour. Cells were washed by PBS, incubated with propidium iodide (0.1 mg/mL) and RNAse A (0.5 mg/mL) for 1 h at room temperature in the dark, and finally analyzed by flow cytometry using a 488 nm single beam laser (FACS Calibur, Becton Dickinson).

Row | Compound | IC50 (CCRF-CEM) [µM] | IC50 (CEM-DNR) [µM] | IC50 (K562) [µM] | IC50 (K562-TAX) [µM] | IC50 (A549) [µM] | IC50 (HCT116) [µM] | IC50 (HCT116p53-/-) [µM] | IC50 (U2OS) [µM] | IC50 (BJ) [µM] | IC50 (MRC-5) [µM] | G0/G1 (%) (CCRF-CEM cells [1]; 1 × IC50) | G2/M (%) (CCRF-CEM cells [1]; 1 × IC50) | S (%) (CCRF-CEM cells [1]; 1 × IC50) | G0/G1 (%) (CCRF-CEM cells [1]; 5 × IC50) | G2/M (%) (CCRF-CEM cells [1]; 5 × IC50) | S (%) (CCRF-CEM cells [1]; 5 × IC50) | Sub G1 (%) (CCRF-CEM cells [1]; 5 × IC50) | pH3Ser10 (%) (CCRF-CEM cells [2]; 1 × IC50) | pH3Ser10 (%) (CCRF-CEM cells [2]; 5 × IC50) | effect on DNA synthesis (in words) (CCRF-CEM cells [3]) | further results
1 | C=C(Cn1cc(-c2ccccn2)nn1)[C@@H]1CC[C@]2(C(=O)O)CC[C@]3(C)C(CCC4[C@@]5(C)CC[C@H](OC(C)=O)C(C)(C)C5CC[C@]43C)C12 (stereo partly drawn) [Compound 9c] | 9 | 14.4 | 22.1 | 13.8 | 13.2 | 30.3 | 13.7 | 16 | 29.5 | 27.6 | 48.9 | 20.3 | 30.9 | 40.5 | 21.0 | 38.5 | 65.6 | 1.47 | 0.89 | inhibiting | Sub G1 (%) (CCRF-CEM cells [1]; 1 × IC50): 7.2%; DNA synthesis (CCRF-CEM cells [3]; 1 × IC50, BrDU incorporation): 20.3; DNA synthesis (CCRF-CEM cells [3]; 5 × IC50, BrDU incorporation): 2.90; effect on RNA synthesis (in words) (CCRF-CEM cells [4]): inhibiting; RNA synthesis (CCRF-CEM cells [4]; 1 × IC50, BrU incorporation): 25.4; RNA synthesis (CCRF-CEM cells [4]; 5 × IC50, BrU incorporation): 0.40
2 | C=C(Cn1cc(-c2ccccc2C=O)nn1)[C@@H]1CC[C@]2(C(=O)O)CC[C@]3(C)C(CCC4[C@@]5(C)CC[C@H](OC(C)=O)C(C)(C)C5CC[C@]43C)C12 (stereo partly drawn) [Compound 9b] | 3.3 | 4 | 3.6 | 3.9 | 14.8 | 6.4 | 9.5 | 12.8 | 31.3 | 28.9 | 58.6 | 19.5 | 21.9 | 35.7 | 18.1 | 46.2 | 51.9 | 1.19 | 0.37 | inhibiting | inhibition of the cell cycle in G0/G1 (in words) (CCRF-CEM cells [1]): highest accumulation; Sub G1 (%) (CCRF-CEM cells [1]; 1 × IC50): 10.8%; DNA synthesis (CCRF-CEM cells [3]; 1 × IC50, BrDU incorporation): 22.6; DNA synthesis (CCRF-CEM cells [3]; 5 × IC50, BrDU incorporation): 0.55; effect on RNA synthesis (in words) (CCRF-CEM cells [4]): inhibiting; RNA synthesis (CCRF-CEM cells [4]; 1 × IC50, BrU incorporation): 15.8; RNA synthesis (CCRF-CEM cells [4]; 5 × IC50, BrU incorporation): 0.08
3 | C=C(Cn1cc(-c2ccccc2C=O)nn1)[C@@H]1CC[C@]2(C(=O)O)CC[C@]3(C)C(CCC4[C@@]5(C)CC[C@H](O)C(C)(C)C5CC[C@]43C)C12 (stereo partly drawn) [Compound 11b] | 8.5 | 11.5 | > 50 | 13.7 | > 50 | 26.3 | 26.9 | > 50 | > 50 | > 50 | 59.0 | 15.7 | 25.3 | 45.5 | 19.1 | 35.4 | 65.6 | 0.88 | 1.19 | inhibiting | DNA synthesis (CCRF-CEM cells [3]; 1 × IC50, BrDU incorporation): 20.0; DNA synthesis (CCRF-CEM cells [3]; 5 × IC50, BrDU incorporation): 6.40; effect on RNA synthesis (in words) (CCRF-CEM cells [4]): inhibiting; RNA synthesis (CCRF-CEM cells [4]; 1 × IC50, BrU incorporation): 48.3; RNA synthesis (CCRF-CEM cells [4]; 5 × IC50, BrU incorporation): 38.1
4 | C=C(Cn1cc(-c2ccccn2)nn1)[C@@H]1CC[C@]2(C(=O)O)CC[C@]3(C)C(CCC4[C@@]5(C)CC[C@H](O)C(C)(C)C5CC[C@]43C)C12 (stereo partly drawn) [Compound 11c] | 14.4 | 8.5 | > 50 | 7.2 | > 50 | > 50 | > 50 | > 50 | > 50 | > 50 | – | – | – | – | – | – | – | – | – | – | –
5 | C=C(CN=[N+]=[N-])[C@@H]1CC[C@]2(C(=O)O)CC[C@]3(C)C(CCC4[C@@]5(C)CC[C@H](O)C(C)(C)C5CC[C@]43C)C12 (stereo partly drawn) [Compound 8, 30-azidobetulinic acid] | 21.7 | 25.8 | 17.2 | 23.9 | 23 | 25.5 | 24 | 25 | 34 | 19.1 | – | – | – | – | – | – | – | – | – | – | –
6 | C=C(Cn1cc(-c2cccnc2)nn1)[C@@H]1CC[C@]2(C(=O)O)CC[C@]3(C)C(CCC4[C@@]5(C)CC[C@H](OC(C)=O)C(C)(C)C5CC[C@]43C)C12 (stereo partly drawn) [Compound 9d] | 14.9 | 12 | 13.3 | 11.2 | 11.3 | 19.2 | 18.7 | 17.3 | 29.9 | 28.2 | – | – | – | – | – | – | – | – | – | – | –
